Reference: patent US20240246970A1, “SUBSTITUTED HETERO-BICYCLOCOMPOUNDS AS SUBTYPE SELECTIVE NICOTINIC ACETYLCHOLINE RECEPTOR INHIBITORS” (THE BOARD OF TRUSTEES OF THE UNIVERSITY OF ILLINOIS, priority 2021, published 2024)
Like-named read-outs stand apart in the source and are kept apart here.

Target: T1, rat α3β4 nAChR (Rattus norvegicus, UniProt P04757+P12392)
T1 construct: expressed in transfected cells; host or cells: HEK293 (rα3β4-HEK293, kept under G-416 selection)
Experiment: Calcium influx assay (dual agonist/antagonist, FLIPR calcium 6) in HEK293 cells expressing rat α3β4 nAChR
Format: cell-based
Experimental: FIGS. 2A-2B show dual agonist/antagonist fluorescence assays. […] For agonist assays, 12 concentrations of test compounds were added to the cells ([…], final concentrations).
FIGS. 3A-3B show concentration response curves. […] Each concentration-response point represents a minimum of two technical replicates and three biological replicates. EC50, Emax, and IC50 values were calculated from corresponding concentration-response curves fitted using the logistical curve in OriginPro.
Assay Description. HEK293 cells expressing the rat α3β4 nAChR were loaded with an intracellular, calcium-sensitive dye. Activation of the receptor results in an increase in the intracellular calcium concentration and a corresponding increase in fluorescent signal. Multiple concentrations of test compounds were first applied to the rα3β4-HEK293 cells and monitored for their ability to activate α3β4 nAChRs.
Cell culture. […] For fluorescence assays, the cells were seeded into 96-well flat bottom, black wall plates, at a density of approximately 50,000 cells per well in 75 μL of media.
Cells seeded at this density grew into a confluent monolayer in 24 h. Ca^2+ fluorescence assays. Ca^2+ uptake was determined using a FLIPR calcium 6 assay.
For dye loading, the fluorescent dye was reconstituted in 10 mL assay buffer according to the manufacturer's protocol. 75 μL of the dye solution was added to each well and the plate was incubated at 37° C. for 1 h. Plates were then transferred to a FlexStation 3 maintained at 37° C.
Dual Agonist/AntagonistAssay. […] For agonist assays, 12 concentrations of test compounds were added to the cells ([…], final concentrations).
Once again, the fluorescence measured for 28 seconds prior to addition and 90 seconds afterwards.
Data reduction. […] Each concentration-response point represents a minimum of two technical replicates and three biological replicates. EC50, Emax, and IC50 values were calculated from corresponding concentration-response curves (see FIGS. 3A-3B) fitted using the logistical curve in OriginPro.

[1] = Example 5, α3β4 nAChR, read-out: IC50

T1 sequence (P04757 26-499): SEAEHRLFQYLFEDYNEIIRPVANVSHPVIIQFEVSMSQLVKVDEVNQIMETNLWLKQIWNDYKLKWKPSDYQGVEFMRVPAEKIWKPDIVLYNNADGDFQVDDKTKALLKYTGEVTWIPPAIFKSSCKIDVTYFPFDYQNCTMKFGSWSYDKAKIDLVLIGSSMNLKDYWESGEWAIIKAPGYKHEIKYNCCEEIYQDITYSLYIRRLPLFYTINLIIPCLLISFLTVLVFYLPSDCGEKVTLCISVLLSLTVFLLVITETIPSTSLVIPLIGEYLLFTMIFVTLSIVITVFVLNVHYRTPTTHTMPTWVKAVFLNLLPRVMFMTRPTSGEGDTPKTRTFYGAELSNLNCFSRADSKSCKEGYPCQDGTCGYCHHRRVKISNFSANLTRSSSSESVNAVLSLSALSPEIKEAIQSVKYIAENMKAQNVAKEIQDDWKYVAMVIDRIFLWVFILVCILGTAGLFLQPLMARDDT
T1 sequence (P12392 21-495): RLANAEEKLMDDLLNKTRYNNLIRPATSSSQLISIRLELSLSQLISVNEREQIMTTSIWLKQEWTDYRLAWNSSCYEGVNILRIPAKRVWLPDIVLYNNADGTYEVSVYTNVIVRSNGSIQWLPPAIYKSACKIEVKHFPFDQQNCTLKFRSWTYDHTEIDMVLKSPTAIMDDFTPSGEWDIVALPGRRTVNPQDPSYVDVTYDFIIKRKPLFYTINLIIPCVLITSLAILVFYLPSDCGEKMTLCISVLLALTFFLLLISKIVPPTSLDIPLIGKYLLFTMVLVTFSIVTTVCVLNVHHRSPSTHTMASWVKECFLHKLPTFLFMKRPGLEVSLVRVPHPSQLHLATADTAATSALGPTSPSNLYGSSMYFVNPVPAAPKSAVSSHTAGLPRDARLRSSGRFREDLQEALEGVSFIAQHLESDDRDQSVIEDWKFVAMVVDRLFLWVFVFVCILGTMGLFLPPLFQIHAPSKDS

## CC1=CCC2CC1C(c1ccnc3ccccc13)N(C)C2(C)C (stereo not shown)
[1]
  IC50: 1400 nM

## CCN1C(c2ccc(F)c(C(F)(F)F)c2)C2CC(CC=C2C)C1(C)C (stereo not shown)
[1]
  IC50: 760 nM

## CC1=CCC2CC1C(c1ccc(F)c(C(F)(F)F)c1)OC2(C)C (stereo not shown) [drawing 51]
IC50, Example 5 text, α3β4 nAChR
  IC50: > 100000 nM

## CC1=CCC2CC1C(c1ccc(F)c(C(F)(F)F)c1)OC2(C)C (stereo not shown) [drawing 115]
α3β4 nAChR IC50, Table 4, R1 and R2 methyl, R3 NH unless otherwise indicated
  IC50: > 200000 nM
